ChEMBL document CHEMBL1158612, “Anti HIV-1 agents 5: synthesis and anti-HIV-1 activity of some N-arylsulfonyl-3-acetylindoles in vitro” (Bioorg Med Chem Lett, 2010)
In brackets after ≈: the same amount, converted by molar mass.

Tests used:
[1] = Cytotoxicity against human C8166 cells after 3 days by MTT assay; assay type: cell-based
[2] = Therapeutic index, ratio of CC50 for human C8166 to EC50 for HIV1 3B
[3] = tested on: Human immunodeficiency virus 1; experiment: Antiviral activity against HIV1 3B infected in C8166 cells assessed as inhibition of syncytia formation; assay type: functional, organism-based; settings: Human immunodeficiency virus 1, 3B

O=[N+]([O-])c1cccc(S(=O)(=O)n2ccc3ccccc32)c1
CC50 at 72 h [1]: > 200 µg/mL | selectivity ratio ([2]; C8166 cells): > 270 | EC50 [3]: 0.74 µg/mL (≈ 2.45 µM)

O=S(=O)(c1ccccc1)n1ccc2ccccc21
CC50 at 72 h [1]: 47.1 µg/mL (≈ 183 µM) | selectivity ratio ([2]; C8166 cells): 50.7 | EC50 [3]: 0.93 µg/mL (≈ 3.61 µM)

N#Cc1ccc2c(ccn2S(=O)(=O)c2ccccc2)c1
CC50 at 72 h [1]: > 200 µg/mL | selectivity ratio ([2]; C8166 cells): > 61.9 | EC50 [3]: 3.23 µg/mL (≈ 11.4 µM)

CC(=O)c1cn(S(=O)(=O)c2ccc(Cl)cc2)c2ccc(C#N)cc12
CC50 at 72 h [1]: 65.2 µg/mL (≈ 182 µM) | selectivity ratio ([2]; C8166 cells): 1.19 | EC50 [3]: 54.4 µg/mL (≈ 152 µM)

CC(=O)c1cn(S(=O)(=O)c2ccc(Cl)c([N+](=O)[O-])c2)c2ccccc12
CC50 at 72 h [1]: 3.21 µg/mL (≈ 8.47 µM) | selectivity ratio ([2]; C8166 cells): 0.94 | EC50 [3]: 3.43 µg/mL (≈ 9.06 µM)

CC(=O)c1cn(S(=O)(=O)c2ccccc2)c2ccc(C#N)cc12
CC50 at 72 h [1]: 66.2 µg/mL (≈ 204 µM) | selectivity ratio ([2]; C8166 cells): 1.21 | EC50 [3]: 57.5 µg/mL (≈ 177 µM)

CC(=O)c1cn(S(=O)(=O)c2cccc([N+](=O)[O-])c2)c2cc(C)ccc12
CC50 at 72 h [1]: 125 µg/mL (≈ 349 µM) | selectivity ratio ([2]; C8166 cells): 122 | EC50 [3]: 1.02 µg/mL (≈ 2.85 µM)

O=S(=O)(c1ccc(Br)cc1)n1ccc2ccccc21
CC50 at 72 h [1]: > 200 µg/mL | selectivity ratio ([2]; C8166 cells): > 9.79 | EC50 [3]: 20.4 µg/mL (≈ 60.7 µM)

CC(=O)c1cn(S(=O)(=O)c2ccc(C)cc2)c2ccc([N+](=O)[O-])cc12
CC50 at 72 h [1]: > 200 µg/mL | EC50 [3]: > 200 µg/mL

Cc1cn([C@H]2C[C@H](N=[N+]=[N-])[C@@H](CO)O2)c(=O)[nH]c1=O [ZIDOVUDINE]
CC50 at 72 h [1]: 1140 µg/mL (≈ 4260 µM) | selectivity ratio [2]: 353000 | EC50 [3]: 0.00324 µg/mL (≈ 0.0121 µM)

CC(=O)c1cn(S(=O)(=O)c2ccc(Br)cc2)c2ccc(C#N)cc12
CC50 at 72 h [1]: > 200 µg/mL | EC50 [3]: > 200 µg/mL

CC(=O)c1cn(S(=O)(=O)c2ccc(Br)cc2)c2ccc([N+](=O)[O-])cc12
CC50 at 72 h [1]: 70.4 µg/mL (≈ 166 µM) | selectivity ratio ([2]; C8166 cells): 1.29 | EC50 [3]: 54.5 µg/mL (≈ 129 µM)

CCc1ccc(S(=O)(=O)n2cc(C(C)=O)c3cc(C#N)ccc32)cc1
CC50 at 72 h [1]: 113 µg/mL (≈ 320 µM) | selectivity ratio [2]: 3.7 | EC50 [3]: 30.5 µg/mL (≈ 86.5 µM)

CC(=O)c1cn(S(=O)(=O)c2ccc(C)cc2)c2ccc(C#N)cc12
CC50 at 72 h [1]: 147 µg/mL (≈ 435 µM) | selectivity ratio ([2]; C8166 cells): 1.91 | EC50 [3]: 76.9 µg/mL (≈ 227 µM)

CC(=O)c1cn(S(=O)(=O)c2ccccc2)c2ccc([N+](=O)[O-])cc12
CC50 at 72 h [1]: > 200 µg/mL | selectivity ratio ([2]; C8166 cells): > 4.36 | EC50 [3]: 45.8 µg/mL (≈ 133 µM)

CC(=O)c1cn(S(=O)(=O)c2cccc([N+](=O)[O-])c2)c2ccccc12
CC50 at 72 h [1]: 164 µg/mL (≈ 477 µM) | selectivity ratio ([2]; C8166 cells): 77.4 | EC50 [3]: 2.12 µg/mL (≈ 6.16 µM)
